Like-named read-outs stand apart in the source and are kept apart here.
Assays:
Acute toxicity (LD50) [1] = conditions: monkey, in vivo, po
human monocytes [2] = assay: Monocyte chemotaxis toward Aβ (48-blindwell microchemotaxis chamber); format: cell-based
Acute toxicity (LD50) [3] = conditions: rat, in vivo, po
[4] = tested on: subjects exhibiting mild to moderate Alzheimer dementia; assay: Clinical trial, EEG and psychometric tests; format: in vivo, human; conditions: ca. 0.25 to ca. 10 mg/p.o. once or divided 2 or 3×; tests at 60, 120 and 180 minutes
human monocytes [5] = assay: Monocyte chemotaxis toward Aβ precursor protein (Aβ-PP); format: cell-based
[6] = monocytes pre-incubated with enzyme blocker, washed, chemotaxis toward Aβ (1 pmol/l), GFX 500 nmol/l, IBMX 10 ng/ml, Tyrphostin-23 10 ng/ml, WTN 10 nmol/l, CTX 1 nmol/l, PTX 1 nmol/l, Medium 1.786 (0.078)
[7] = monocytes pre-incubated with enzyme blocker, washed, chemotaxis toward Aβ-PP (1 pmol/l), GFX 500 nmol/l, IBMX 10 ng/ml, Tyrphostin-23 10 ng/ml, WTN 10 nmol/l, CTX 1 nmol/l, PTX 1 nmol/l, Medium 1.639 (0.076)

SMILES	Chemotaxis Index Aβ Mean (+/−SEM) (human monocytes [2]; [6])	Chemotaxis Index Aβ-PP Mean (+/−SEM) (human monocytes [5]; [7])	also measured
CCCCCCCCc1ccc(CCC(N)(CO)CO)cc1.Cl [Compound A, 2-amino-2-[2-(4-octylphenyl)ethyl]propane-1,3-diol]			LD50 (Acute toxicity (LD50) [1]): > 10 mg/kg; Chemotaxis Mean (+/−SEM) (human monocytes [2]; chemotaxis index, monocytes incubated 20 min with 2 ng/ml, washed, chemotaxis toward Aβ [1 pmol/L], Medium 1.825 (0.14)): 1.077 (0.18); LD50 (Acute toxicity (LD50) [3]): > 10 mg/kg; condition as evidenced by EEG results and psychometric tests compared with placebo [4]: improved condition
CN(C)CCCn1cc(C2=C(c3c[nH]c4ccccc34)C(=O)NC2=O)c2ccccc21 [GFX]	1.143 (0.08)	1.098 (0.10)	
CC(C)Cn1c(=O)n(C)c(=O)c2[nH]cnc21 [IBMX]	1.234 (0.06)	1.208 (0.09)	
N#CC(C#N)=Cc1ccc(O)c(O)c1 [Tyrphostin-23]			Chemotaxis Index Aβ Mean (+/−SEM) (human monocytes [2]): 1.435 (0.04); Chemotaxis Index Aβ-PP Mean (+/−SEM) (human monocytes [5]): 1.398 (0.07)
COC[C@H]1OC(=O)c2coc3c2[C@@]1(C)C1=C(C3=O)[C@@H]2CCC(=O)[C@@]2(C)C[C@H]1OC(C)=O [WTN]	1.023 (0.05)	1.115 (0.08)	

From US8519006B2, “Use of sphingosine-1 phosphate (S1P) receptor agonists for the treatment of brain degenerative diseases” (Novartis AG, priority 2003, dated 2013)
